Experiments:
[1] = target: T1, Human PDGFRα, cytoplasmic domain (GST-PDGFRα) (Homo sapiens, UniProt P16234); experiment: Human PDGFRα biochemical inhibition assay (off-chip Mobility Shift Assay)
T1 construct: made in house

[2] = target: T2, Human PDGFRβ, cytoplasmic domain (GST-PDGFRβ) (Homo sapiens, UniProt P09619); experiment: Human PDGFRβ biochemical inhibition assay (off-chip Mobility Shift Assay)
T2 construct: made in house
Method in brief: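 GST-tagged cytoplasmic domain (aa 557-1106) from baculovirus was incubated 1 h at room temperature with compound, CSKtide, ATP at Km and Mg²⁺ in HEPES buffer, pH 7.5. Phosphorylated and unphosphorylated peptide were separated by off-chip mobility shift, and the product ratio P/(P+S) gave percent inhibition.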

T1 sequence (P16234 550-1089 T674I): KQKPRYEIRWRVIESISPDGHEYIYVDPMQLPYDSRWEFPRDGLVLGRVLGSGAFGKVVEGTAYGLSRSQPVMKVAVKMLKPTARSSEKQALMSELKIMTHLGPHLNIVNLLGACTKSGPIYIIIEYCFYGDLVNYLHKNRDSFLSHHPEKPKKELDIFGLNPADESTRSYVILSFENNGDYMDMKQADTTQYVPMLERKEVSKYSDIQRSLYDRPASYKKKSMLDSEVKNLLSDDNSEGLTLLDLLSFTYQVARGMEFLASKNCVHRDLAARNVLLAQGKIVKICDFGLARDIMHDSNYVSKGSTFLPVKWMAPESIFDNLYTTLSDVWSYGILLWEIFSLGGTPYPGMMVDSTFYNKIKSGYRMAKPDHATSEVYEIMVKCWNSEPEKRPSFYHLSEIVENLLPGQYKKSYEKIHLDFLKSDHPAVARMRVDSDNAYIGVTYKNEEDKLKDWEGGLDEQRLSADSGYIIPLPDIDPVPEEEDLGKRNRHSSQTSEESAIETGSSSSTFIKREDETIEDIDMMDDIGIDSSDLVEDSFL
T2 sequence (P09619 with tags, fused parts or gaps): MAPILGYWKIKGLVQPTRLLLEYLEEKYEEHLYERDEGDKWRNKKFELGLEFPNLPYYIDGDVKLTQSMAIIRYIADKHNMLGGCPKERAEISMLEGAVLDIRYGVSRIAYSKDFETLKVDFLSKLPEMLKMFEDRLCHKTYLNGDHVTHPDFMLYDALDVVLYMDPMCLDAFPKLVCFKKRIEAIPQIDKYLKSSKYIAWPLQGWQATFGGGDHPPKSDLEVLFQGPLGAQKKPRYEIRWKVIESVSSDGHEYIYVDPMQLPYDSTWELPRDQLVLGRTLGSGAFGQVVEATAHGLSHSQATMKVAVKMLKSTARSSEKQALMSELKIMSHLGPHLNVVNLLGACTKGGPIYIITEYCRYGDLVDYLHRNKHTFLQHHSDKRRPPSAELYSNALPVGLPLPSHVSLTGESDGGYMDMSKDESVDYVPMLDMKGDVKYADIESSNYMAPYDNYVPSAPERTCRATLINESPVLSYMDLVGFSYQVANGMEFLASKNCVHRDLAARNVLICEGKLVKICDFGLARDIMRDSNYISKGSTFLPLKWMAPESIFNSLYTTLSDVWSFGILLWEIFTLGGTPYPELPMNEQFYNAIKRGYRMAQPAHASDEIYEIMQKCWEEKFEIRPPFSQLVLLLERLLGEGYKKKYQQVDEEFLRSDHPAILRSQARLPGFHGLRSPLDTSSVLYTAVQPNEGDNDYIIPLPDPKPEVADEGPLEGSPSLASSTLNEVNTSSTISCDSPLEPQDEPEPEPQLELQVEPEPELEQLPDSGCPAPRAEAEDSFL

IC50 [1] [nM] | IC50 [2] [nM] | SMILES
< 300 | < 300 | Cc1cc(C(=O)Nc2cccc([C@H](C)Nc3cnc4cnn(C)c4n3)c2)cnc1F [Compound 192, (S)-6-fluoro-5-methyl-N-(3-(1-((1-methyl-1H-pyrazolo[3,4-b]pyrazin-6-yl)amino)ethyl)phenyl)nicotinamide]
< 300 | < 300 | CCn1cc2ncc(N[C@@H](C)c3cccc(NC(=O)c4ccc(OC)c(F)c4)c3)nc2n1 [Compound 359, (S)-N-(3-(1-((2-ethyl-2H-pyrazolo[3,4-b]pyrazin-6-yl)amino)ethyl)phenyl)-3-fluoro-4-methoxybenzamide]
300 to 1000 | ≥ 1000 | CCn1cc2ncc(N[C@@H](C)c3cccc(NC(=O)c4ccc(OC)nc4)c3)nc2n1 [Compound 285, (S)-N-(3-(1-((2-ethyl-2H-pyrazolo[3,4-b]pyrazin-6-yl)amino)ethyl)phenyl)-6-methoxynicotinamide]
< 300 | < 300 | CCn1cc2ncc(N[C@@H](C)c3cccc(NC(=O)c4cnc(C(F)F)c(C)c4)c3)nc2n1 [Compound 353]
< 300 | 300 to 1000 | CCn1cc2ncc(N[C@@H](C)c3cccc(NC(=O)Cc4cc(C)c(F)cn4)c3)nc2n1 [Compound 686, (S)-N-(3-(1-((2-ethyl-2H-pyrazolo[3,4-b]pyrazin-6-yl)amino)ethyl)phenyl)-2-(5-fluoro-4-methylpyridin-2-yl) acetamide]
< 300 | < 300 | CCn1cc2ncc(N[C@@H](C)c3cc(NC(=O)Cc4cccc(Cl)c4)ccc3F)nc2n1 [Compound 635, (S)-2-(3-chlorophenyl)-N-(3-(1-((2-ethyl-2H-pyrazolo[3,4-b]pyrazin-6-yl)amino)ethyl)-4-fluorophenyl)acetamide]
< 300 | < 300 | CCn1cc2ncc(N[C@@H](C)c3cccc(NC(=O)c4ccc(CN5CCOCC5)c(C)c4)c3)nc2n1 [Compound 403, (S)-N-(3-(1-((2-ethyl-2H-pyrazolo[3,4-b]pyrazin-6-yl)amino)ethyl)phenyl)-3-methyl-4-(morpholinomethyl) benzamide]
< 300 | < 300 | CCn1cc2ncc(N[C@@H](C)c3cc(NC(=O)c4cnc5ccccc5c4)ccc3F)nc2n1 [Compound 63, (S)-N-(3-(1-((2-ethyl-2H-pyrazolo[3,4-b]pyrazin-6-yl)amino)ethyl)-4-fluorophenyl) quinoline-3-carboxamide]
< 300 | < 300 | CCOc1ncc(C(=O)Nc2cccc([C@H](C)Nc3cnc4cn(CC)nc4n3)c2)cc1C [Compound 314, (S)-6-ethoxyN-(3-(1-((2-ethyl-2H-pyrazolo[3,4-b]pyrazin-6-yl)amino)ethyl)phenyl)-5-methylnicotinamide]
< 300 | < 300 | CCn1cc2ncc(N[C@@H](C)c3cccc(NC(=O)c4ccc(OC(F)(F)F)c(C)c4)c3)nc2n1 [Compound 452, (S)-N-(3-(1-((2-ethyl-2H-pyrazolo[3,4-b]pyrazin-6-yl)amino)ethyl)phenyl)-3-methyl-4-(trifluoromethoxy)benzamide]
< 300 | < 300 | C[C@H](Nc1cnc2cnn(C)c2n1)c1cccc(NC(=O)c2cncc(C(C)(C)F)c2)c1 [Compound 108, (S)-5-(2-fluoropropan-2-yl)-N-(3-(1-((1-methyl-1H-pyrazolo[3,4-b]pyrazin-6-yl)amino)ethyl)phenyl) nicotinamide]
< 300 | ≥ 1000 | CCn1cc2ncc(N[C@@H](C)c3cccc(NC(=O)c4ccc(C(=O)N5CC[C@@H](N)C5)c(Cl)c4)c3)nc2n1 [Compound 467, 4-((R)-3-aminopyrrolidine-1-carbonyl)-3-chloro-N-(3-((5)-1-((2-ethyl-2H-pyrazolo[3,4-b]pyrazin-6-yl)amino)ethyl)phenyl)benzamide]
< 300 | < 300 | COC(=O)c1ccc(C(=O)Nc2cccc([C@H](C)Nc3cnc4cnn(C)c4n3)c2)cc1C [Compound 199, methyl (S)-2-methyl-4-((3-(1-((1-methyl-1H-pyrazolo[3,4-b]pyrazin-6-yl)amino)ethyl)phenyl)carbamoyl)benzoate]

Further lines, the compound ahead of its results:

SMILES | IC50 [1] [nM] | IC50 [2] [nM]
Cc1cncc(C(=O)Nc2cccc([C@H](C)Nc3cnc4cc(C)sc4c3)c2)c1 [Compound 18, (S)-5-methyl-N-(3-(1-((2-methylthieno[3,2-b]pyridin-6-yl)amino)ethyl)phenyl)nicotinamide] | < 300 | < 300
Cc1cncc(C(=O)Nc2cccc([C@H](C)Nc3cnc4ccn(-c5cnn(C)c5)c4n3)c2)c1 [Compound 86, (S)-5-methyl-N-(3-(1-((5-(1-methyl-1H-pyrazol-4-yl)-5H-pyrrolo[2,3-b]pyrazin-3-yl)amino)ethyl)phenyl) nicotinamide] | < 300 | < 300
Cc1cncc(C(=O)Nc2cccc([C@H](C)Nc3cnc4[nH]nc(Cl)c4n3)c2)c1 [Compound 550, (S)-N-(3-(1-((3-chloro-1H-pyrazolo[3,4-b]pyrazin-5-yl)amino)ethyl)phenyl)-5-methylnicotinamide] | < 300 | < 300
Cc1c[nH]c2ncc(N[C@@H](C)c3cccc(NC(=O)c4ccc(OC(F)(F)F)nc4)c3)nc12 [Compound 568, (S)-N-(3-(1-((7-methyl-5H-pyrrolo[2,3-b]pyrazin-2-yl)amino)ethyl)phenyl)-6-(trifluoromethoxy)nicotinamide] | 300 to 1000 | ≥ 1000
Cc1n[nH]c2ncc(N[C@@H](C)c3cccc(NC(=O)c4cc(C(C)C)on4)c3)nc12 [Compound 542, (S)-5-isopropyl-N-(3-(1-((3-methyl-1H-pyrazolo[3,4-b]pyrazin-5-yl)amino)ethyl)phenyl)isoxazole-3-carboxamide] | < 300 | < 300
C[C@H](Nc1cnc2[nH]cc(-c3cnn(C)c3)c2n1)c1cccc(NC(=O)c2cnn(C3CC3)c2)c1 [Compound 581, (S)-1-cyclopropyl-N-(3-(1-((7-(1-methyl-1H-pyrazol-4-yl)-5H-pyrrolo[2,3-b]pyrazin-2-yl)amino)ethyl)phenyl)-1H-pyrazole-4-carboxamide] | < 300 | < 300
Cc1c[nH]c2ncc(N[C@@H](C)c3cccc(NC(=O)c4cnn(CCF)c4)c3)nc12 [Compound 575, (S)-1-(2-fluoroethyl)-N-(3-(1-((7-methyl-5H-pyrrolo[2,3-b]pyrazin-2-yl)amino)ethyl)phenyl)-1H-pyrazole-4-carboxamide] | < 300 | < 300
CCc1nc2cc(N[C@@H](C)c3cccc(NC(=O)c4cncc(C)c4)c3)cnc2[nH]1 [Compound 24] | 300 to 1000 | 300 to 1000
Cc1cc(C(=O)Nc2cccc([C@H](C)Nc3cnc4cnn(C)c4n3)c2)cnc1C#N [Compound 127, (S)-6-cyano-5-methyl-N-(3-(1-((1-methyl-1H-pyrazolo[3,4-b]pyrazin-6-yl)amino)ethyl)phenyl)nicotinamide] | < 300 | < 300
Cc1cncc(C(=O)Nc2cccc([C@H](C)Nc3cnc4cnn(-c5cccnc5)c4n3)c2)c1 [Compound 273, (S)-5-methyl-N-(3-(1-((1-(pyridin-3-yl)-1H-pyrazolo[3,4-b]pyrazin-6-yl)amino)ethyl)phenyl)nicotinamide] | < 300 | < 300
